From US11033029B2, “Pyrazole amide compound and use thereof” (Shenyang Sinochem Agrochemicals R&D Co., Ltd., priority 2013, dated 2021)

Key:
[1] = system: corn rust (Puccinia sorghi Schw); assay: Protective effect against corn rust on potted plants; format: in vivo; details: protectant activity, parallel test
Protocol: (§1) Fungicidal activity of the compounds in the present invention against many kinds diseases were carried out. The procedure of fungicidal activity determination is as follows:
(§2) The fungicidal activity was tested in vivo manner on the potted plants. The test compounds of the present invention were dissolved in proper solvent (choosing the solvent according their dissolving ability to the compounds, the solvents could be acetone, methanol or N,N-dimethylformide, etc. The volume ratio between solvent and liquid sprayed was equal to or less than 0.05) and dilute with water contain 0.1% Tween 80 to given concentrations. Compounds of present invention was sprayed onto the leaves of seedling according to the designed concentration. Meanwhile, water was set as the blank control, three replicates were set for each treatment, the spore suspension were inoculated on the second day after treatment, then the plants were placed in an artificial climate chamber (temperature: day 25° C., night 20° C., relative humidity 95 to 100%). 24 hours later, the plants were moved to green house to cultivated. The plants which not need to control humidity was inoculated spore suspension in green house and cultivated in green house directly. The results were investigated after the plants were fully infected relative to the blank control (usually one week). The test results grading 100-0 refers to the <A Manual of Assessment Keys for Plant Diseases> which edited by American Phytopathological Society. “100” refer to no infection and “0” refer to the most serious infection
Protective effect against corn rust (Puccinia sorghi Schw):
According the test method described above, parallel test were carried out between compounds 1, 3, 7, 9, 11 and 21 of present invention and the known compounds KC1, KC2, KC3 and KC4.

[2] = system: cucumber downy mildew (Pseudoperonospora cubensis (Berk.et Curt.) Rostov); assay: Protective effect against cucumber downy mildew on potted plants; format: in vivo; details: 400 ppm, protectant activity, parallel test
Protocol: as §1, §2
Protective effect against cucumber downy mildew (Pseudoperonospora cubensis (Berk.et Curt.) Rostov)
According the test method described above, parallel test were carried out between compounds 2 and 11 of present invention and the known compounds KC1, KC2, KC3 and KC4 (they are the compounds 7g, 7f and 7a in Chinese Journal of Pesticide Science, 2011, 13(6): 576-580 and compound of 11 in CN1646494A, respectively).

Compound	pest or weed control at 6.25 ppm [1] [%]	pest or weed control at 25 ppm [1] [%]	Control effect against cucumber downy mildew (%) [2] [%]
Cn1cc(C(=O)Nc2ccccc2)c(C(F)F)n1 [KC1]	0	60	0
Cc1c(F)cccc1NC(=O)c1cn(C)nc1C(F)F [KC3]	20	30	0
CCCC(C)Oc1cccc(NC(=O)c2cn(C)nc2C(F)F)c1 (stereo not drawn) [Compound 3]	95	100	–
C=C(C)Cc1c(NC(=O)c2cn(C)nc2C(F)F)cccc1OC(C)C [Compound 21]	90	100	–
CC(C)Oc1cccc(NC(=O)c2cn(C)nc2C(F)F)c1 [Compound 1]	100	100	–
CCC(CC)Oc1cccc(NC(=O)c2cn(C)nc2C(F)F)c1C [Compound 11]	90	100	90
Cn1cc(C(=O)Nc2ccc(F)cc2-c2ccc(Cl)c(Cl)c2)c(C(F)F)n1 [KC4, bixafen]	0	50	0
Cc1ccccc1NC(=O)c1cn(C)nc1C(F)F [KC2]	0	0	0
